Several values for one entry are separate records, joined by “and”; a condition that tells them apart may be missing. Equal values may be shown once. Entries after “also recorded” stand apart in the source; their conditions may differ. Read-outs that look alike come from different tables or passages of the source.

The values below come from PMC10222378 (Pharmaceuticals, 2023).

The subject of one data set is human lymphocytes. As to the kind of experiment: CFSE lymphocyte proliferation assay after PHA activation. The class given is cell-based. The following applies: 200 μM ClGBI. Here is the method:
In this method, following the loading of cells with CFSE dye, each round of cell division is apparent by the reduced dye content and consequent lower fluorescence intensity of the daughter cells. […] Peripheral blood mononuclear cells (PBMCs) were isolated from the heparinized blood of healthy donors (n = 3) using the Ficoll–Hypaque separation method. […] The cells were grown in a humidified chamber at 37 °C and 5% CO2 for 6 days. As a negative control, unstimulated CFSE-labeled PBMCs were cultured in the same condition. […] After 6 days of proliferation, the CFSE-labeled cells were collected and analyzed by flow cytometry in an ACEA NovoCyte 2000R cytometer (Agilent, Santa Clara, CA, USA).

The target of a further data set is hKV1.4-IR (Homo sapiens, UniProt P22459). The data set is described as follows: Whole-cell patch clamp on hKV1.4-IR in CHO cells. The following applies: estimated from single concentration (200 μM), bimolecular interaction assumed, n = 6, read-out: estimated Kd. The class given is cell-based. An excerpt: (§1) Pulses were delivered every 30 s. […] […]. Red dashed line indicates no effect.
(§2) In general, the holding potential was −120 mV.
(§3) […]. […] […].
(§4) […]. All data are presented as means ± SEM.

A further data set deals with T1, hKV1.5 (Homo sapiens, UniProt P22460).
T1 construct: EYFP (pEYFP vector); expressed in transfected cells; host or cells: CHO cells, transient
T1 sequence (P22460 whole entry): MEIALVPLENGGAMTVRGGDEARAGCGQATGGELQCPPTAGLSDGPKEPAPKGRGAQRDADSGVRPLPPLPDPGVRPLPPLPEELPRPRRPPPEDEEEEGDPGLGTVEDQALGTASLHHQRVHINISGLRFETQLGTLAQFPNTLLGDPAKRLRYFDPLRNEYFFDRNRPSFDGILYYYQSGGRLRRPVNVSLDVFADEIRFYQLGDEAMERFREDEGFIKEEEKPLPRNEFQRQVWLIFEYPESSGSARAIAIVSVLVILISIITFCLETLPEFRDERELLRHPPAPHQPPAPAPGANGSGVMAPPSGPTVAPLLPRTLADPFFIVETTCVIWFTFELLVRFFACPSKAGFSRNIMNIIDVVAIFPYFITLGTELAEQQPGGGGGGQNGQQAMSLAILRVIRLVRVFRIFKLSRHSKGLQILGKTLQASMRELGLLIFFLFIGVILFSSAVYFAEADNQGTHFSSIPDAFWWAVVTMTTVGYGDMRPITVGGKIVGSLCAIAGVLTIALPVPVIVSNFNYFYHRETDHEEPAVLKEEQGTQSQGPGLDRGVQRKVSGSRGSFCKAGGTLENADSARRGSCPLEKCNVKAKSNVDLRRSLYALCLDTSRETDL
The data set is described as follows: Whole-cell patch clamp on hKV1.5 in CHO cells. The class given is cell-based. The following applies: estimated from single concentration (200 μM), bimolecular interaction assumed, n = 4, read-out: estimated Kd.
Source text: as §1, §2, §3, §4

A further data set has as its target T2, hKV10.1 (Homo sapiens, UniProt O95259).
T2 construct: host or cells: CHO cells, transient, co-transfected with a separate GFP plasmid
T2 sequence (O95259 1-989): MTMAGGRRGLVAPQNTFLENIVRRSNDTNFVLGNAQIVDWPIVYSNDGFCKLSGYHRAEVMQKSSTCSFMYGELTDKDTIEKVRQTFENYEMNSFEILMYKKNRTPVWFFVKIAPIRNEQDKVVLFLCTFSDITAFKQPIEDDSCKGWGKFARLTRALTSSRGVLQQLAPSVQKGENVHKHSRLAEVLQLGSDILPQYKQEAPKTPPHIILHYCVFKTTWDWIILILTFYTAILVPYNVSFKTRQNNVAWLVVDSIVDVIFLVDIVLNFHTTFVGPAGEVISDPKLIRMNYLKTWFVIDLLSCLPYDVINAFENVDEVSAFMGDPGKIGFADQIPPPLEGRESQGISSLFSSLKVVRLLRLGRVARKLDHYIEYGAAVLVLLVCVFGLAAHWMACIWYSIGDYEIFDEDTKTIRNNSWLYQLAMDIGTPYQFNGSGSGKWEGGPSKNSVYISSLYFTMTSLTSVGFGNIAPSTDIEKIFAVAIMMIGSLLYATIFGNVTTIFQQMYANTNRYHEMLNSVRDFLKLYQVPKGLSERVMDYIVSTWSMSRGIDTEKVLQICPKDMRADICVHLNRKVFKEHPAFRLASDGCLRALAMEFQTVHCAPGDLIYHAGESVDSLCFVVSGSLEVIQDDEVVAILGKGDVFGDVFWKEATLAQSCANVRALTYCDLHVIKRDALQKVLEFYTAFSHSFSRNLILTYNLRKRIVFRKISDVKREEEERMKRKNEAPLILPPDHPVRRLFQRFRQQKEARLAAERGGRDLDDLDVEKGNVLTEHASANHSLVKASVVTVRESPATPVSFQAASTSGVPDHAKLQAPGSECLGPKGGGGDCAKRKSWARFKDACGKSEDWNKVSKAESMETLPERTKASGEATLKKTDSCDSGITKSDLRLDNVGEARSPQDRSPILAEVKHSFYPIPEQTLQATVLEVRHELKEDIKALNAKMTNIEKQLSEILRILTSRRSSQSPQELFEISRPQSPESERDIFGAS
The data set is described as follows: Whole-cell patch clamp on hKV10.1 in CHO cells. The class given is cell-based. The following applies: estimated from single concentration (200 μM), bimolecular interaction assumed, n = 5, read-out: estimated Kd.
Source text: as §1, §2, §3, §4

The next data set addresses T3, hKCa3.1 (Homo sapiens, UniProt O15554).
T3 construct: expressed in transfected cells; host or cells: CHO cells, transient
As to the kind of experiment: Whole-cell patch clamp on hKCa3.1 in CHO cells. The class given is cell-based.
Source text: as §1, §2, §3, §4
(In general: The patch-clamp technique gives a direct electrical read-out from membranes.)

The next data set addresses T4, hNaV1.4 (Homo sapiens, UniProt P35499).
T4 construct: expressed in transfected cells
The data set is described as follows: Whole-cell patch clamp on hNaV1.4 stably expressed in HEK293 cells. The class given is cell-based. As to conditions: estimated from single concentration (200 μM), bimolecular interaction assumed, n = 4, read-out: estimated Kd.
Source text: as §1, §2, §3, §4

The next data set deals with T5, hNaV1.5 (Homo sapiens, UniProt Q14524).
T5 construct: expressed in transfected cells; host or cells: CHO cells, transient
As to the kind of experiment: Whole-cell patch clamp on hNaV1.5 in CHO cells. As to conditions: estimated from single concentration (200 μM), bimolecular interaction assumed, n = 6, read-out: estimated Kd. The class given is cell-based.
Source text: as §1, §2, §3, §4

Data set [1] addresses voltage-gated proton (H+) channel (HV1). Further details: method as in PMID 24912149. As to conditions: known HV1 inhibitor, value quoted in abstract; amphibian expression system; cited from earlier work.
In a further data set the target is hKV11.1 (hERG) (Homo sapiens, UniProt Q12809). The data set is described as follows: in vitro. As to conditions: HEK293 cells stably expressing hKV11.1 (hERG), pH 7.35. (hERG is a cardiac potassium channel; its block is linked to QT prolongation.)
Chain of hKV11.1 (hERG) (Q12809 whole entry): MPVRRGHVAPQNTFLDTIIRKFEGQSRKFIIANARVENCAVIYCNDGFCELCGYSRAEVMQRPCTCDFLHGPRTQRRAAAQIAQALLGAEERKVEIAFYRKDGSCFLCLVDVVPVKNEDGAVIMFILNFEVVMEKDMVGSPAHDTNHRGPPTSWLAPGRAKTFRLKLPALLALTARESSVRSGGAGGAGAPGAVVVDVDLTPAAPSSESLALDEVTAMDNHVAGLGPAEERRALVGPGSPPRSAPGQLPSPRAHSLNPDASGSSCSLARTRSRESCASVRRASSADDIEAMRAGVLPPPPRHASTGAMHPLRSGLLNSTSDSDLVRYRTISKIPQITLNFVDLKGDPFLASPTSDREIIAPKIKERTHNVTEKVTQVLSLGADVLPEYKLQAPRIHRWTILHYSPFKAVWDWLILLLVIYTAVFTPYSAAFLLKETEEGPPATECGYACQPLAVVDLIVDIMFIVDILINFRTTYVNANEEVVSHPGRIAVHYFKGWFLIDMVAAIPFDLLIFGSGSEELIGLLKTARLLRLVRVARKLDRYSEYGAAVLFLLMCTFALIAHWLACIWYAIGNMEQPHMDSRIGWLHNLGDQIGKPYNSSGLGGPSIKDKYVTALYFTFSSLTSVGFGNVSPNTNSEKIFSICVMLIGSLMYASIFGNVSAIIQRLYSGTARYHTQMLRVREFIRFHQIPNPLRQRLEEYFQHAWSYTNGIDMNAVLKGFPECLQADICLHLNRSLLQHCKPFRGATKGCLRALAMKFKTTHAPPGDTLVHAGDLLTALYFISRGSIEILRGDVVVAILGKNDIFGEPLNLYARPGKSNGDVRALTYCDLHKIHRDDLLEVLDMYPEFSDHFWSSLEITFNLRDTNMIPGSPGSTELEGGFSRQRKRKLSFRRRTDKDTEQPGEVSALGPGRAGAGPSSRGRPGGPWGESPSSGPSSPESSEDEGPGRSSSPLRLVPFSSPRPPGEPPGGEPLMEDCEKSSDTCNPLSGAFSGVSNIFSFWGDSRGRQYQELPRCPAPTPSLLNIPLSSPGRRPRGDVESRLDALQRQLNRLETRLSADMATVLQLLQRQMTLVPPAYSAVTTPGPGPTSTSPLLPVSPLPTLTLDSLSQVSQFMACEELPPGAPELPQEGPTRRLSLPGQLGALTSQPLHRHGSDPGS
For data set [2], the system named is hKV1.1, hKV1.4-IR, hKV1.5, hKV10.1, hKV11.1, hKCa3.1, hNaV1.4, hNaV1.5. As to the kind of experiment: in vitro. The following applies: human.
Protocol: (A–D) Currents were evoked from holding potentials of –100 mV by depolarizations to +50 mV for the time interval indicated on the panels. […] (E) hKV11.1 currents were measured with a voltage step from a holding potential of –80 mV to +20 mV, followed by a step to –40 mV, during which the peak current was measured. Pulses were delivered every 30 s. […] Red dashed line indicates no effect. Bars represent the mean of 3–8 independent measurements; error bars indicate the SEM.
Data set [3] has as its target T6, hKV1.3 (Homo sapiens, UniProt P22001). The data set is described as follows: Whole-cell patch clamp on hKV1.3 in activated human lymphocytes. The class given is cell-based. Further details: endogenous in cells.
Source text: The essential role of voltage-gated KV1.3 channels in T cell activation and proliferation is well-documented, so we tested whether the proliferation was suppressed in part via a KV1.3 blockade. […]. The open probability of the channel at +50 mV is maximal, and the relatively short duration of the depolarizing periods prevented inactivation. The time between voltage pulses was set to 15 s to avoid the cumulative inactivation of hKV1.3 channels. Under the given experimental conditions (i.e., the voltage protocol used and the lack of Ca^2+ in the pipette solution), the whole-cell currents were conducted exclusively by hKV1.3 channels. […]. Human peripheral blood […] (PBMCs) were isolated from venous blood obtained from anonymized healthy donors. The peripheral blood mononuclear cells were isolated by Histopaque1077 (Sigma-Aldrich Hungary, Budapest, Hungary) density gradient centrifugation. The cells obtained were resuspended in Roswell Park Memorial Institute (RPMI) 1640 medium (Gibco, Cat# 11875085) containing 10% fetal calf serum (FCS, Sigma-Aldrich, St. Louis, MO, USA), 100 μg/mL penicillin, 100 μg/mL streptomycin, and 2 mM L-glutamine, seeded in a 24-well culture plate at a density of 5–6 × 10^5 cells/mL, and grown in a 5% CO2 incubator at 37 °C for 3–5 days. Phytohemagglutinin A (PHA, Sigma-Aldrich, St. Louis, MO, USA) was also added at a concentration of 8–12 μg/mL to the medium to amplify the expression level of KV1.3. CHO cells and PBMCs were gently washed twice with 2 mL of ECS (see below) for the patch clamp experiments. hKV1.3 currents were recorded on activated lymphocytes 3 to 4 days after activation.
as §2, §3, §4
To examine the binding kinetics, RCF was plotted as a function of time. The association time constant (τon) was determined by fitting the data points with a single exponential function, RCF=RCF0×e^−t/τon+C where RCF0 is the RCF value before the addition of the drug, and C is a constant term.

The target of data set [4] is T7, hKV1.1 (Homo sapiens, UniProt Q09470). As to the kind of experiment: Whole-cell patch clamp on hKV1.1 in CHO cells. Further details: host or cells: CHO cells, transient. As to conditions: estimated from single concentration (200 μM), bimolecular interaction assumed, n = 5, read-out: estimated Kd. The class given is cell-based.
T7 sequence (Q09470 whole entry): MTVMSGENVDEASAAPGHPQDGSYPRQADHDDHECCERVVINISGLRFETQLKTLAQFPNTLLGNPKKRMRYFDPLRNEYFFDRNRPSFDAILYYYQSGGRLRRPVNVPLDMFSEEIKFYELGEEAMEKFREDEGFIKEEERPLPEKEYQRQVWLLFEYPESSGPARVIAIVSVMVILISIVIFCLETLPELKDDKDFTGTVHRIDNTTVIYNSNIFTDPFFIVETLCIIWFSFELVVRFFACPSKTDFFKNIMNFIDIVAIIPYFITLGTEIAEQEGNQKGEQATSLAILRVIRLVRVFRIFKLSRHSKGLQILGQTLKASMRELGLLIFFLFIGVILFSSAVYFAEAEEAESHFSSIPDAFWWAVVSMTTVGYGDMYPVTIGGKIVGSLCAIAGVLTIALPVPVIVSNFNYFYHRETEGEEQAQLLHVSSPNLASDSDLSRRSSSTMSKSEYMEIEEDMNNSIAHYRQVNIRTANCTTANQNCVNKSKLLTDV
Source text: as §1, §2, §3, §4

Data set [5] concerns the target T6, hKV1.3. As to conditions: read-out: Kd (concentration of positive control equivalent to its Kd), no reference given; cited from earlier work.
Data set [6] has as its target T7, hKV1.1. The following applies: read-out: Kd (concentration of positive control equivalent to its Kd), no reference given; cited from earlier work.

T6 sequence (P22001 whole entry): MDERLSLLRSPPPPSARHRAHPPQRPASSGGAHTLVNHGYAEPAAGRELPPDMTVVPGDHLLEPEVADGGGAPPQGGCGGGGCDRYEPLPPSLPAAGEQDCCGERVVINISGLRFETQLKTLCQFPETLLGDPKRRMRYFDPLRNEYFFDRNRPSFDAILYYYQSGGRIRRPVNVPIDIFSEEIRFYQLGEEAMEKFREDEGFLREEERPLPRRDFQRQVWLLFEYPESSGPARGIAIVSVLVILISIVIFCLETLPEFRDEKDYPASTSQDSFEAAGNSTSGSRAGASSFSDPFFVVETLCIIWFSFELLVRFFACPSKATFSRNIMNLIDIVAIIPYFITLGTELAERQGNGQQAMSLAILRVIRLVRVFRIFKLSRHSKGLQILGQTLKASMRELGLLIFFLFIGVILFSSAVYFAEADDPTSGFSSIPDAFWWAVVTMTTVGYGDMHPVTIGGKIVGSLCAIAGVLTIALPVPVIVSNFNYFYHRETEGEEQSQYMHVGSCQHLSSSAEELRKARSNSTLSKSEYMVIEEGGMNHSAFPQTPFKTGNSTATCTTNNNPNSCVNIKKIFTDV
T4 sequence (P35499 whole entry): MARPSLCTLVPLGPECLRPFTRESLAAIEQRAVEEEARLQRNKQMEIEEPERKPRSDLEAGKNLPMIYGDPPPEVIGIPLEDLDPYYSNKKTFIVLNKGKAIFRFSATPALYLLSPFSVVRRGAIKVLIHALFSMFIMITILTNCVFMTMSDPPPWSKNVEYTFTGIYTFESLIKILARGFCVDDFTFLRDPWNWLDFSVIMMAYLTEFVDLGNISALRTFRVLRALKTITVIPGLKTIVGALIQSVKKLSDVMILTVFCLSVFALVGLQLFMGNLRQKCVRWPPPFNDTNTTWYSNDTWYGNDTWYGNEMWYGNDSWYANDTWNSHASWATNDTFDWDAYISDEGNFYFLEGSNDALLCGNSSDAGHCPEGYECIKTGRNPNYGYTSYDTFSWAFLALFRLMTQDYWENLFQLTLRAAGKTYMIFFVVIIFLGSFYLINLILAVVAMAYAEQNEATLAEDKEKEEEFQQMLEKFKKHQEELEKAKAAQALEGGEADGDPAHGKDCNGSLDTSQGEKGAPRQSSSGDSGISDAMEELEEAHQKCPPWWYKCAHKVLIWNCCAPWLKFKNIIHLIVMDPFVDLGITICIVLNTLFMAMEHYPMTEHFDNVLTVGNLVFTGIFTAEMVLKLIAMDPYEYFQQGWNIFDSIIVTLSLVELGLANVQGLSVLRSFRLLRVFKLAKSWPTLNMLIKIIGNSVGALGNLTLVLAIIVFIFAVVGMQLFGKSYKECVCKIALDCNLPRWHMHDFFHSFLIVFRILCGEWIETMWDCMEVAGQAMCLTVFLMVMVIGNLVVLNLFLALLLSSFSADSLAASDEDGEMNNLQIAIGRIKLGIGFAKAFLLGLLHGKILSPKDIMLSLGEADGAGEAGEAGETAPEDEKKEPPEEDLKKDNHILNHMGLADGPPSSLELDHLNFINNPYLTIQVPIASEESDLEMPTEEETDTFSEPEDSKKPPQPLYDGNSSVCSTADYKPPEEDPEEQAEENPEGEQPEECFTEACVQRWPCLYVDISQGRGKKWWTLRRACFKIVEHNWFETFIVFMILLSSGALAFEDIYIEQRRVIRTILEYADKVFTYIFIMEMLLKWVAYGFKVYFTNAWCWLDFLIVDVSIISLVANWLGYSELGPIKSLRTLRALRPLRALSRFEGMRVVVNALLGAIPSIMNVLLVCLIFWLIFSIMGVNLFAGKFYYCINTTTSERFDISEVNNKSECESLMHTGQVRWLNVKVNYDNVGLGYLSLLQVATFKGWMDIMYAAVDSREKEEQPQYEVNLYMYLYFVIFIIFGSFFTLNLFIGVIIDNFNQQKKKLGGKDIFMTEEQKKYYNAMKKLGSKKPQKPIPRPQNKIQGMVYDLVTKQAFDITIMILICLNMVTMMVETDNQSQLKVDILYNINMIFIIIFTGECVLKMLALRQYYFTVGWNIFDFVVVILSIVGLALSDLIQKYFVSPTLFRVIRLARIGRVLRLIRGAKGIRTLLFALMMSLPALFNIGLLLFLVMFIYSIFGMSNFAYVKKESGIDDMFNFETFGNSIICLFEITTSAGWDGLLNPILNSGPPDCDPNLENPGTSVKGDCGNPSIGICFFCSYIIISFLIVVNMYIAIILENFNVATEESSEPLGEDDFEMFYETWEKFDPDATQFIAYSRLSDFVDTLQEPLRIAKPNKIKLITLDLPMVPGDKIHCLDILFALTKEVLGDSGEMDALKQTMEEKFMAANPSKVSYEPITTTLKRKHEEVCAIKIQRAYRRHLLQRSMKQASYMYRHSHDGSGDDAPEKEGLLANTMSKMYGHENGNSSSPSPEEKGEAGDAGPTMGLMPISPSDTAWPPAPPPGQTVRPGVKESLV

With `N=C(N)Nc1nc2ccc(Cl)cc2[nH]1` [ClGBI, 5-chloro-2-guanidinobenzimidazole], the “effect on lymphocyte proliferation” value with human lymphocytes was “completely blocked; also recorded: significant suppression”. The potency estimated from few doses is 188 ± 38 µM at hKV1.4-IR; 310 ± 43.6 µM at hKV1.5; 77.5 ± 14.2 µM on hKV10.1; 894 ± 134 µM at hKCa3.1 (CHO, estimated from single concentration (200 μM), bimolecular interaction assumed, n = 5, read-out: estimated Kd); 591 ± 123 µM on hNaV1.4; 187 ± 35.7 µM at hNaV1.5. For the same molecule, the potency estimated from few doses is 12 ± 2.1 µM on hKV11.1 (hERG) and 324 ± 13.1 µM on hKV1.1 [4]. Also, the “inhibition of KCa3.1” value on hKCa3.1 (200 μM ClGBI) is “inhibited KCa3.1 to a small extent”. The Kd in [1] is roughly 26 µM; in [2], 12 to 894 µM; at hKV1.3 [3] (two-parameter Hill fit of RCF dose-response, human lymphocytes) it was 72.4 µM and ~72 µM. In addition, the “time to reach block saturation” value on hKV1.3 [3] (200 μM ClGBI) was in the range of 50 to 100 s. In addition, on hKV1.3 [3] (200 μM ClGBI, equilibrium block), the “reduction in current amplitude” value is given as ~ 75%. In addition, at hKV1.3 [3] (200 μM ClGBI, equilibrium block, n = 9), the “remaining current fraction (RCF)” value came out at 0.25 ± 0.01. On hKV1.3 [3] (200 μM ClGBI, single exponential fit, n = 3), the “association time constant τon” value came out at 22.1 ± 2.7 s. The “reversibility of block on washout” value at hKV1.3 [3] (after 200 μM ClGBI, perfusion with ClGBI-free ECS) was “complete recovery from block; also recorded: complete recovery from current inhibition”. For the same molecule, the “Hill coefficient nH” value at hKV1.3 [3] (two-parameter Hill fit of RCF dose-response) came out at 1.1 ± 0.07.

Consider `CC[N+](CC)(CC)CC` [TEA^+, tetraethylammonium], for which the figures for the Kd on hKV1.3 [5] and at hKV1.1 [6] were 10000 µM and 300 µM, respectively.
